Results reported in US20120058112A1, “ANTIBODIES” (priority 2009, published 2012).

Legend:
NSCLC [1] = conditions: phase II, previously treated NSCLC patients, 2004; cited from earlier work
NSCLC [2] = conditions: standard chemotherapy plus EGFR inhibitor; cited from earlier work
NSCLC [3] = conditions: cancer no longer responding to chemotherapy; cited from earlier work
[4] = cited from earlier work
[5] = system: human mammary carcinoma which expresses EGFR; conditions: mouse, in vivo; cited from earlier work
[6] = system: carcinoma which does not express the EGF receptor; conditions: mouse, in vivo; cited from earlier work
lung cancer cell lines = assay: Proliferation assay (Cyquant DNA content), adherent (2D) conditions; format: cell-based; conditions: adherent (2D) growth conditions
Method: Summary: To test the functional effect of inhibiting both EGFR & IGFIR signaling, the growth inhibition under adherent (2D) and non adherent (3D) conditions were evaluated. […] In order to test the effect of this combination under 3D non-adherent conditions, the inventors developed an ultra low attachment plate based proliferation assay.
Methods: Cells (˜3×10̂3) were seeded in adherent or non-adherent (ultra-low attachment plates; Corning) 96 well plates. […] The media and drugs were slowly replaced every 3 days and at the end of the assay (as indicated) plates were harvested and DNA content was measured using Cyquant assays as described by the manufacturer. The intrinsic growth was calculated based on the increase in DNA content from Day 1 to the end of the assay.

IGF1R = assay: Total IGF1R level in xenograft tumors (western blot / ELISA); format: in vivo, nu/nu mice
Method: (§1) Methods: Total protein (500 microgram) from xenograft samples was isolated at the end of the efficacy study (4 weeks after indicated doses). Samples from 6 independent tumors were analyzed for east treatment. The proteins were western blotted and visualized as described previously (See FIG. 2).

[7] = system: PI3K pathway (P-AKT, PS6K, PS6RP); assay: PI3K pathway western blot in xenograft tumors; parameters: species or system nu/nu mice; conditions: following MK-0646 treatment, previous in vivo data
Method: as §1

C#Cc1cccc(Nc2ncnc3cc(OCCOC)c(OCCOC)cc23)c1.Cl [Erlotinib]
participants whose tumors responded to treatment (NSCLC [1]): 12% | outcome versus chemotherapy alone (NSCLC [2]): did no better | survival versus placebo (NSCLC [3]): about two months longer | overall survival benefit ([4]; in vivo): did not help patients live any longer overall | time to progression ([4]; placebo group 4.9 months): 5.1 months | median survival ([4]; placebo group 10.5 months): 10.6 months

O=CN/C=C/c1cc(O)ccc1O [erbstatin]
tumor growth [5]: selectively attenuates the growth | tumor growth [6]: without effect

COc1cc2ncnc(Nc3ccc(F)c(Cl)c3)c2cc1OCCCN1CCOCC1 [gefitinib]
outcome versus chemotherapy alone (NSCLC [2]): did no better

MK-0646: humanized antibody that binds IGF-1R as well as the IR/IGF-1 hybrid receptor
growth inhibition (lung cancer cell lines): no significant growth inhibition | total levels of IGF1R (IGF1R; compared to vehicle or Erlotinib alone, FIG. 6): able to reduce the total levels of IGF1R | IGF1R receptor level (IGF1R; previous in vivo data, NCI-H2122 xenograft): down regulation | P13K pathway [7]: inhibition was also observed
